Experimental data as given in article PMC4263425 (Biochemistry, 2014).

What was measured:
HDAC8 = conditions: read-out: Ki for HDAC8; cited from earlier work
human HDAC8 [1] = target: T1, human HDAC8 (Homo sapiens, UniProt Q9BY41); assay: Isothermal titration calorimetry; type: binding
T1 sequence (Q9BY41 1-377): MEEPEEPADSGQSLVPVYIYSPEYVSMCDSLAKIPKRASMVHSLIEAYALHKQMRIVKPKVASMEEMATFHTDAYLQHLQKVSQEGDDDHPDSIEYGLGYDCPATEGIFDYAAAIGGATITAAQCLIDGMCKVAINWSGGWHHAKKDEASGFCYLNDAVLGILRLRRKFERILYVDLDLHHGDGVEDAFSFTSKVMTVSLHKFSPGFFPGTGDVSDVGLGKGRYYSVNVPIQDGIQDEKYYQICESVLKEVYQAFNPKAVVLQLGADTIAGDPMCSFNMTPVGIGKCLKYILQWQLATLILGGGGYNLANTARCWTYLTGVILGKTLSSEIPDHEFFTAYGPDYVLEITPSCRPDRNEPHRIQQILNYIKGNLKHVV

human HDAC8 [2] = target: T1, human HDAC8; assay: Temperature-dependent ITC; type: binding; conditions: for temp (K), where ΔG° = ΔH°: interpolated from the ΔCp° plots, TΔS° = 0
[3] = Tris-HCl buffer (pH 7.5), 25 °C
[4] = difference versus SAHA, Table 1 conditions

Structure (SMILES) | Ki (HDAC8) [nM] | stoichiometry (human HDAC8 [1]; [3]) | ΔG°obs (human HDAC8 [1]; [3]) | temp (K), where ΔG° = ΔH° (human HDAC8 [2]) [K] | other results
O=C(CCCc1ccccc1)NO [4-PBHA] | 1850 |  |  |  | 
Cn1cc(C(=O)c2ccccc2)cc1C=CC(=O)NO [APHA] | 600 |  |  |  | 
CC(NC(=O)CCCc1ccc2ccc3cccc4ccc1c2c34)C(=O)NO (stereo not shown) [MH-12/4, N-(1-Hydroxycarbamoyl-ethyl)-4-pyren-1-yl-butyramide] |  | 0.9 ± 0.1 | –8.0 ± 0.4 kcal/mol | 341 | TΔS°obs (human HDAC8 [1]; [3]): 5.3 ± 0.4 kcal/mol; ΔH°obs (human HDAC8 [1]; [3]): –2.72 ± 0.3 kcal/mol; binding enthalpy less favorable than that of SAHA by (human HDAC8 [1]; [4]): 8.2 kcal/mol; binding entropy (TΔS°) more favorable than that of SAHA by (human HDAC8 [1]; [4]): 7.8 kcal/mol; ΔCp° (human HDAC8 [2]; 5–25 °C, Tris-HCl buffer, slope of ΔH°obs vs temperature): –0.13 ± 0.02 kcal mol^–1 K^–1
O=C(CCCCCCC(=O)Nc1ccccc1)NO [SAHA, suberoylanilide hydroxamic acid] |  | 0.9 ± 0.1 | –8.4 ± 0.3 kcal/mol | 288 | higher favorable binding enthalpy compared to that of TSA (human HDAC8 [1]; Table 1 conditions): 2 kcal/mol; stoichiometry of the enzyme–SAHA complex (human HDAC8 [1]; control ITC titration for every batch of enzyme): 0.9–1
O=C(CCCCCCC(=O)Nc1cccnc1)NO [pyroxamide] | 1000 |  |  |  | 
